Source: patent US20120077814A1, “SULFONAMIDE, SULFAMATE, AND SULFAMOTHIOATE DERIVATIVES” (priority 2010, published 2012)
pIC50: −log10 of the molar value.

Experiments:
[1] = tested on: HCT-116 cell proliferation; test: Cell proliferation assay (HCT-116); format: cell-based; details: Homo sapiens; HCT-116 cells; read-out: Activity (range of inhibitory activity against HCT-116 cell proliferation, IC50)
Description: A panel of cancer cell lines is obtained from ATCC (Rockville, Md.). Cell cultures are maintained in Hyclone DMEM/F12 medium (Logan, Utah) supplemented with 10% fetal bovine serum and 15 mM HEPES buffer, final pH 7.2, at 37° C. with a 5% CO2 atmosphere. Cultures are maintained at sub-confluent densities.
For proliferation assays, cells are seeded into 96 well plates at 1,000-5,000 cells per well, depending on the cell line, and are incubated overnight. The following day, test compound, DMSO solution (negative control), or Actinomycin D (positive control) is added to the appropriate wells as 10× concentrated stocks prepared in phosphate buffered saline. The cell plates are then incubated for an additional 2-6 days, depending on the cell line, to allow proliferation to occur. To measure cell growth in adherent cultures, DNA amounts are measured in each well using the CyQuant DNA determination kit (Invitrogen, Carlsbad, Calif.) following the recommended protocol. Measurement of cell growth in suspension cultures is done by use of Celltiter Reagent (Promega, Madison, Wis.) at the end of treatment, following the recommended protocol. The percentage of cell growth is determined by comparing the cell growth in the presence of test compounds to the cells treated with DMSO vehicle (control, 100% growth) and cells treated with Actinomycin D ([…], 0% growth). […]

[2] = molecular target: T1, recombinant human NAE enzyme (NEDD8 Activating Enzyme) (Homo sapiens, UniProt Q8TBC4); test: E1-activating enzyme assay, time-resolved fluorescence energy transfer (NAE); format: biochemical; details: 0.5 nM recombinant human NAE, 100 μM ATP; read-out: Activity (range of inhibitory activity on NAE, IC50)
T1 sequence (Q8TBC4 1-463): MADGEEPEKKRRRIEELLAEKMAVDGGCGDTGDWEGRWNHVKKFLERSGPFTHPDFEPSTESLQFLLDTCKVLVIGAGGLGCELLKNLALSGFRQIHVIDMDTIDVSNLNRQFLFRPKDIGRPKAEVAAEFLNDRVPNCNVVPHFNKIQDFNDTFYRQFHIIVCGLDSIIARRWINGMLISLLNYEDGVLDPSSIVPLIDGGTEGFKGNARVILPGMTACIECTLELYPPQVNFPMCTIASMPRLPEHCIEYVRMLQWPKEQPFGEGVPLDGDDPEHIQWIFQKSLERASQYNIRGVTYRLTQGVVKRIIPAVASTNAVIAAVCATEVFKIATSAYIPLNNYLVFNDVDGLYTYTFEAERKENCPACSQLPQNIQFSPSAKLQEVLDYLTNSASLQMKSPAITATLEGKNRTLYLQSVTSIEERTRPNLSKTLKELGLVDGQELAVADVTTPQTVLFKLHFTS
T1 sequence (Q13564 1-534 partner): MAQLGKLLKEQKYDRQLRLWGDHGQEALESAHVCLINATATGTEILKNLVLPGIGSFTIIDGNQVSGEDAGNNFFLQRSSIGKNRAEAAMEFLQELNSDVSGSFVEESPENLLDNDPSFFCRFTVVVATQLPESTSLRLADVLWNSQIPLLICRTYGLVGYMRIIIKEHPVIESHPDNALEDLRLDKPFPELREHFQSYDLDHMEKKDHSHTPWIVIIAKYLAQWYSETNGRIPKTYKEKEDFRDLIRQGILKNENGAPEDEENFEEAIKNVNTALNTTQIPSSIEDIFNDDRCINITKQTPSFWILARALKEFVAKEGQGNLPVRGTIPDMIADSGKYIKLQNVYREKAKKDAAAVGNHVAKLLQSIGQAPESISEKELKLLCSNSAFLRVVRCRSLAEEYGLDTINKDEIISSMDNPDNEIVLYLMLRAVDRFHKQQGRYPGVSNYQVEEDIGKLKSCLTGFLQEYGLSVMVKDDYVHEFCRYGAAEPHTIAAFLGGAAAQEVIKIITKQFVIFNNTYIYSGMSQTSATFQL
Description: A time-resolved fluorescence energy transfer assay format is used to measure the in vitro activity of NEDD8 Activating Enzyme (NAE). The enzymatic reaction is performed in a total volume of 50 μL, containing 50 mM HEPES, pH 7.5, 0.05% BSA, 5 mM MgCl2, 100 μM ATP, 10 nM Ubc12-GST, 75 nM NEDD8-Flag and 0.5 nM recombinant human NAE enzyme. The reaction mixture is incubated with and without compound inhibitor at 24° C. for 30 min in a 96 half-well plate. The reaction is then terminated with 25 μL of stop/detection buffer (0.1 M HEPES, pH 7.5, 0.05% Tween20, 20 mM EDTA, 410 mM KF, 81.8 ng/mL Europium-Cryptate-labelled monoclonal Flag-M2-specific antibody (CisBio International) and 8.125 μg/mL PHYCOLINK allophycocyanin (XL-APC)-labelled GST-specific antibody (Prozyme)). After incubation for 2 hours at 24° C., the plate is read on a Tecan Infinite M1000 instrument using a time-resolved fluorescence method. A similar assay protocol is used to measure other E1 enzymes. For the Sumo Activating Enzyme (SAE) assay everything is conducted as described for NAE except that Ubc12-GST and NEDD8-Flag are replaced with 10 nM Ubc9-GST and 125 nM Sumo-Flag respectively, and recombinant human SAE (0.6 nM) replaced NAE. The Ubiquitin Activating Enzyme (UAE) assay is performed as described for NAE except Ubc12-GST, NEDD8-Flag, and NAE are replaced with 5 nM Ubc2-GST, 125 nM UBB-Flag, and 1.5 nM UAE respectively.
Compounds of the disclosure are inhibitors of NAE. Several exemplary compounds useful in the methods of the disclosure are listed below.

| pIC50 [1] | pIC50 [2] | SMILES |
| --- | --- | --- |
| 4.30 to 5.30 |  | COCCNc1ncnc2c([C@@H]3O[C@H](COS(N)(=O)=O)[C@@H](O)[C@H]3O)csc12 [Compound 28, (3,4-dihydroxy-5-(4-(2-methoxyethylamino)thieno[3,2-d]pyrimidin-7-yl)tetrahydrofuran-2-yl)methyl sulfamate] |
|  | 5.30 to 6.30 | NS(=O)(=O)OC[C@H]1O[C@@H](c2csc3c(NCc4ccccc4Cl)ncnc23)[C@H](O)[C@@H]1O [Compound 30, (5-(4-(2-chlorobenzylamino)thieno[3,2-d]pyrimidin-7-yl)-3,4-dihydroxytetrahydrofuran-2-yl)methyl sulfamate] |
|  | 5.30 to 6.30 | NS(=O)(=O)OC[C@H]1O[C@@H](c2coc3c(NCc4ccc(Cl)c(C(F)(F)F)c4)ncnc23)[C@H](O)[C@@H]1O [Compound 35, (5-(4-(4-chloro-3-(trifluoromethyl)benzylamino)furo[3,2-d]pyrimidin-7-yl)-3,4-dihydroxytetrahydrofuran-2-yl)methyl sulfamate] |
| 4.30 to 5.30 |  | NS(=O)(=O)OC[C@H]1O[C@@H](c2csc3c(NCC4CC4)ncnc23)[C@H](O)[C@@H]1O [Compound 26, (5-(4-(cyclopropylmethylamino)thieno[3,2-d]pyrimidin-7-yl)-3,4-dihydroxytetrahydrofuran-2-yl)methyl sulfamate] |
| 4.30 to 5.30 |  | NS(=O)(=O)OC[C@H]1O[C@@H](c2coc3c(NCc4ccc(Cl)cc4Cl)ncnc23)[C@H](O)[C@@H]1O [Compound 34, (5-(4-(2,4-dichlorobenzylamino)furo[3,2-d]pyrimidin-7-yl)-3,4-dihydroxytetrahydrofuran-2-yl)methyl sulfamate] |
|  | 5.30 to 6.30 | NS(=O)(=O)OC[C@H]1O[C@@H](c2csc3c(NCc4cccc(Cl)c4)ncnc23)[C@H](O)[C@@H]1O [Compound 37, (5-(4-(3-chlorobenzylamino)thieno[3,2-d]pyrimidin-7-yl)-3,4-dihydroxytetrahydrofuran-2-yl)methyl sulfamate] |

Continued, molecule first:

| SMILES | pIC50 [1] | pIC50 [2] |
| --- | --- | --- |
| Nc1ncnc2c([C@@H]3O[C@H](COS(N)(=O)=O)[C@@H](O)[C@H]3O)coc12 [Compound 11, ((2R,3S,4R,5S)-5-(4-aminofuro[3,2-d]pyrimidin-7-yl)-3,4-dihydroxytetrahydrofuran-2-yl)methyl sulfamate] | > 6.30 | 5.30 to 6.30 |
| NS(=O)(=O)OC[C@H]1O[C@@H](c2ccc3c(N[C@H]4CCc5ccccc54)ncnn23)CC1=O [Compound 1, [(2R,5R)-5-[4-[[(1S)-indan-1-yl]amino]pyrrolo[2,1-f][1,2,4]triazin-7-yl]-3-oxo-tetrahydrofuran-2-yl]methyl sulfamate] | 4.30 to 5.30 | 4.30 to 5.30 |
| NS(=O)(=O)OC[C@H]1O[C@@H](c2csc3c(NCc4ccccc4)ncnc23)[C@H](O)[C@@H]1O [Compound 25, (5-(4-(benzylamino)thieno[3,2-d]pyrimidin-7-yl)-3,4-dihydroxytetrahydrofuran-2-yl)methyl sulfamate] | 5.30 to 6.30 |  |
| Nc1ncnc2c([C@@H]3O[C@H](COS(N)(=O)=O)[C@@H](O)[C@H]3O)[nH]nc12 [Compound 3, [(2R,3S,4R,5S)-5-(7-amino-1H-pyrazolo[4,3-d]pyrimidin-3-yl)-3,4-dihydroxy-tetrahydrofuran-2-yl]methyl sulfamate] | 5.30 to 6.30 | 5.30 to 6.30 |
| NS(=O)(=O)OC[C@H]1O[C@@H](c2csc3c(NCc4ccc(Cl)cc4)ncnc23)[C@H](O)[C@@H]1O [Compound 6, ((2R,3S,4R,5S)-5-(4-(4-chlorobenzylamino)thieno[3,2-d]pyrimidin-7-yl)-3,4-dihydroxytetrahydrofuran-2-yl)methyl sulfamate] | 5.30 to 6.30 | > 6.30 |
| NS(=O)(=O)OC[C@H]1O[C@@H](c2csc3c(N[C@H]4CCc5ccccc54)ncnc23)C[C@@H]1O [Compound 10, ((2R,3S,5R)-5-(4-((S)-2,3-dihydro-1H-inden-1-ylamino)thieno[3,2-d]pyrimidin-7-yl)-3-hydroxytetrahydrofuran-2-yl)methyl sulfamate] | 5.30 to 6.30 | 5.30 to 6.30 |
| NS(=O)(=O)OC[C@H]1C[C@H](c2ccc3c(N[C@H]4CCc5ccccc54)ncnn23)C[C@@H]1OS(N)(=O)=O [Compound 19, [2-[(aminosulfonyl)oxy]-4-{4-[2,3-dihydro-1H-inden-1-ylamino]pyrrolo[2,1-f][1,2,4]triazin-7-yl}cyclopentyl]methyl sulfamate] | 4.30 to 5.30 | 4.30 to 5.30 |
| Nc1ncnc2c([C@@H]3O[C@H](COS(N)(=O)=O)[C@@H](O)[C@H]3O)cnn12 [Compound 13, ((2R,3S,4R,5S)-5-(4-aminopyrazolo[1,5-a][1,3,5]triazin-8-yl)-3,4-dihydroxytetrahydrofuran-2-yl)methyl sulfamate] | 4.30 to 5.30 |  |
| Nc1ncnc2c([C@@H]3O[C@H](COS(N)(=O)=O)[C@@H](O)[C@H]3O)csc12 [Compound 4, [(2R,3S,4R,5S)-5-(4-aminothieno[3,2-d]pyrimidin-7-yl)-3,4-dihydroxy-tetrahydrofuran-2-yl]methyl sulfamate] | > 6.30 | > 6.30 |
